Assay in all cases: inhibition of tumour cell growth, NCI panel, 48 h
Assay [1] has as its system BT-549 breast.
In assay [2] the test system is COLO 205 colon.
The test system of assay [3] is DU-145 prostate.
Assay [4] concerns HS 578T breast.
The test system of assay [5] is M14 melanoma.
Assay [6] deals with NCI-H23 lung.
Assay [7] has as its system NCI-H460 lung.
The test system of assay [8] is SK-MEL-5 melanoma.
Assay [9] concerns SR leukemia.
Assay [10] relates to UACC-62 melanoma.

Experimental findings from PubChem BioAssay (NCI) are described below.

Molecules are shown by their SMILES.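 Grown in 96-well plates, cells were treated for 48 hours with each compound at five concentrations. Insufficient inhibition: endpoint recorded as highest concentration tested. GI50 is the concentration that inhibits growth by half. TGI: concentration producing complete growth inhibition.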

`C[C@]12CC[C@@H]3c4ccc(O)cc4CC[C@H]3[C@@H]1CC[C@@H]2NS(=O)(=O)c1cccc(Br)c1`: the GI50 was 3.05 µM in [1]; 1.89 µM in assay [2]; 5.22 µM in assay [3]; 4.04 µM in assay [4]; 3.69 µM in assay [5]; 3.89 µM in assay [6]. Also, the GI50 in assay [7] is 2.53 µM; in assay [8], 1.77 µM; in [9], 2.37 µM; in [10], 3.19 µM. Further, the TGI stood at 10.3 µM in assay [1]; 3.38 µM in assay [2]; 17 µM in assay [3]; 24.8 µM in assay [4]; 13.7 µM in assay [5]; 17 µM in assay [6]. Further, the TGI in [7] amounted to 6.67 µM; in [8] it was 3.31 µM; in [9], 7.63 µM; in [10], 12.9 µM.
With `O=C=Nc1ccc(Cc2ccc(N=C=O)cc2)cc1` (tested in a mixture with another compound), the GI50 in [1], in assay [2], in [3], in assay [4], in assay [5] and in [6] was above 25 µg/mL in each case. The GI50 in assay [7], in assay [8], in assay [9] and in assay [10] was above 25 µg/mL throughout. The TGI in [1], in [2], in assay [3], in assay [4], in assay [5] and in assay [6] was above 25 µg/mL each time. For the same compound, the TGI in assay [7], in [8], in assay [9] and in [10] was above 25 µg/mL throughout.
With `CCN(C)S(=O)(=O)Nc1cccc(Nc2ncnc3cc(NC(=O)CCl)ccc23)c1Cl`, the GI50 is 2.54 µM in assay [1]; 2.5 µM in assay [2]; 3.69 µM in [3]; 3.55 µM in assay [4]; 1.77 µM in assay [5]; 2.54 µM in assay [6]. Besides, the GI50 in [7] was 3.57 µM; in assay [8] it was 3.43 µM; in assay [9], 0.824 µM; in assay [10], 1.18 µM. Moreover, the TGI in assay [1] was found to be 6.66 µM; in assay [2], 6.51 µM; in [3], 8.86 µM; in [4] it was 18.6 µM; in [5] it was 7.34 µM; in [6], 7.88 µM. Further, the TGI was 8.6 µM in [7], 7.83 µM in assay [8], 7.76 µM in [9] and 4.46 µM in assay [10].
As for `CCOC(=O)c1c(C)c2c(n1C)CSc1cc(S(=O)(=O)c3ccccc3)c(=O)[nH]c1-2`, the GI50 in assay [1] was 21.1 µM; in assay [2], 14.3 µM; in assay [3], 23.1 µM; in [4], 40.1 µM; in assay [5], 27.9 µM; in assay [6], 28.6 µM. Further, the GI50 in [7] was 25.7 µM; in [8], 13.2 µM; in assay [9], 29.3 µM; in assay [10], 14.2 µM. The TGI is above 100 µM in assay [1]; 36.3 µM in assay [2]; above 100 µM in [3]; above 100 µM in [4]; 77.7 µM in assay [5]; above 100 µM in assay [6]. In addition, the TGI was above 100 µM in [7], 29.6 µM in [8], above 100 µM in assay [9] and 69.1 µM in assay [10].
Consider `COc1cc(/C=C2\C(=O)N(c3c(Cl)cccc3Cl)c3ccccc32)cc(OC)c1O`, for which the GI50 in assay [1] is 3.2 µM; in assay [2], 5.94 µM; in [3], 0.663 µM; in assay [4] it was 8.98 µM; in [5], 1.03 µM; in assay [6], 1.47 µM. Besides, the GI50 in assay [7] was 0.342 µM; in [8], 0.375 µM; in assay [9], 0.0847 µM; in assay [10], 0.594 µM. Besides, the TGI is 18.4 µM in assay [1]; 18.7 µM in [2]; 6.13 µM in [3]; above 27.8 µM in assay [4]; 15.6 µM in assay [5]; 14.4 µM in assay [6]. Further, the TGI in [7] worked out at 4.58 µM; in [8], 6.26 µM; in assay [10], 13.2 µM.
`O=S(=O)(Nc1ccc(Cl)c(C(F)(F)F)c1)c1ccc(-c2cnc(C3CC3)o2)cc1`: the GI50 is 0.128 µM in assay [1]; 0.419 µM in assay [2]; 1.28 µM in [3]; 0.334 µM in assay [4]; 0.276 µM in [5]; 1.37 µM in assay [6]. In addition, the GI50 was 0.102 µM in assay [7], 0.296 µM in assay [8], 0.0822 µM in assay [9] and 0.203 µM in assay [10]. The TGI in [1] came out at 4.79 µM; in assay [2] it was 2.33 µM; in [3], 10.6 µM; in assay [4] it was 3.48 µM; in assay [5], 4.68 µM; in assay [6] it was 6.37 µM. In addition, the TGI was 10 µM in assay [7], 1.75 µM in assay [8], above 23 µM in assay [9] and 2.2 µM in assay [10].
Take `COc1ccc2[nH]cc(/C=C3\C(=O)Nc4ccccc43)c2c1`: the GI50 was 2.9 µM in assay [1]; 3.86 µM in [2]; 5.2 µM in assay [3]; 3.79 µM in assay [4]; 2.99 µM in assay [5]; 10.5 µM in [6]. The GI50 in [7] was 4.09 µM; in [8], 3.43 µM; in [9], 1.96 µM; in assay [10] it was 4.09 µM. The TGI in assay [1] was 21.4 µM; in assay [2], 23.2 µM; in assay [3] it was 22.3 µM; in [4], 19.9 µM; in assay [5], 14.2 µM; in assay [6], 49.6 µM. For the same compound, the TGI in assay [7] was found to be 18.7 µM; in [8] it was 15.2 µM; in [9], 5.2 µM; in [10] it was 20.6 µM.
